# Assay results taken from publication PMC4752590, “Reciprocal effects of capsaicin and menthol on thermosensation through regulated activities of TRPV1 and TRPM8” (The Journal of Physiological Sciences : JPS, 2015).
# Tests used:
# [1] = biological target: T1, hTRPM8 (transient receptor potential melastatin 8) (Homo sapiens, UniProt Q7Z2W7); assay: whole-cell patch clamp in HEK293T; inhibition of […] menthol-evoked current; type: cell-based
# T1 construct: gene TRPM8; Full-length
# [2] = biological target: T2, hTRPV1 (transient receptor potential vanilloid 1) (Homo sapiens, UniProt Q8NER1); assay: whole-cell patch clamp in HEK293T; inhibition of […] capsaicin-evoked current; type: cell-based
# T2 construct: gene TRPV1; Full-length
# T2 sequence (Q8NER1 whole entry): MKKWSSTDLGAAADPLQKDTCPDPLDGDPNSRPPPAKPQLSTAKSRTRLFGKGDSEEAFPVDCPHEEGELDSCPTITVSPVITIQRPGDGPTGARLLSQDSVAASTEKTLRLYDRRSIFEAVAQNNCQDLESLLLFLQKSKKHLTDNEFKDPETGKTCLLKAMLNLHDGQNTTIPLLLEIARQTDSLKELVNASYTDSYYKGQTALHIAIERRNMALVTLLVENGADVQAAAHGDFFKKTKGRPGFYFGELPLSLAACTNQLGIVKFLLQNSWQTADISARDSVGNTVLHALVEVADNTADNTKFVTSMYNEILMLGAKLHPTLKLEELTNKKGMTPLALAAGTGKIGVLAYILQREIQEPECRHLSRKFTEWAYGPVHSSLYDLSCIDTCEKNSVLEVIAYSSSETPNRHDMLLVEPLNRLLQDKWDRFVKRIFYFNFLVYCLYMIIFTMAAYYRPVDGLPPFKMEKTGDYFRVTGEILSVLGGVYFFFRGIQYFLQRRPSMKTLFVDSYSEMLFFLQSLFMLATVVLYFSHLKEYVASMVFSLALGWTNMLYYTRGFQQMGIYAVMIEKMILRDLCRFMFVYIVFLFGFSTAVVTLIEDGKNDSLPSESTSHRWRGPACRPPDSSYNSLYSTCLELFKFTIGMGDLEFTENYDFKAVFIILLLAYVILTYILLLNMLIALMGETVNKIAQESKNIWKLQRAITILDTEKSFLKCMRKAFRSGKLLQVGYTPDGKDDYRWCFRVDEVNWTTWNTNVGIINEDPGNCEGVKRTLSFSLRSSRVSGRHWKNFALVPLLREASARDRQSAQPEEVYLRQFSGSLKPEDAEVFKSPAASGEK
# T1 sequence (Q7Z2W7 whole entry): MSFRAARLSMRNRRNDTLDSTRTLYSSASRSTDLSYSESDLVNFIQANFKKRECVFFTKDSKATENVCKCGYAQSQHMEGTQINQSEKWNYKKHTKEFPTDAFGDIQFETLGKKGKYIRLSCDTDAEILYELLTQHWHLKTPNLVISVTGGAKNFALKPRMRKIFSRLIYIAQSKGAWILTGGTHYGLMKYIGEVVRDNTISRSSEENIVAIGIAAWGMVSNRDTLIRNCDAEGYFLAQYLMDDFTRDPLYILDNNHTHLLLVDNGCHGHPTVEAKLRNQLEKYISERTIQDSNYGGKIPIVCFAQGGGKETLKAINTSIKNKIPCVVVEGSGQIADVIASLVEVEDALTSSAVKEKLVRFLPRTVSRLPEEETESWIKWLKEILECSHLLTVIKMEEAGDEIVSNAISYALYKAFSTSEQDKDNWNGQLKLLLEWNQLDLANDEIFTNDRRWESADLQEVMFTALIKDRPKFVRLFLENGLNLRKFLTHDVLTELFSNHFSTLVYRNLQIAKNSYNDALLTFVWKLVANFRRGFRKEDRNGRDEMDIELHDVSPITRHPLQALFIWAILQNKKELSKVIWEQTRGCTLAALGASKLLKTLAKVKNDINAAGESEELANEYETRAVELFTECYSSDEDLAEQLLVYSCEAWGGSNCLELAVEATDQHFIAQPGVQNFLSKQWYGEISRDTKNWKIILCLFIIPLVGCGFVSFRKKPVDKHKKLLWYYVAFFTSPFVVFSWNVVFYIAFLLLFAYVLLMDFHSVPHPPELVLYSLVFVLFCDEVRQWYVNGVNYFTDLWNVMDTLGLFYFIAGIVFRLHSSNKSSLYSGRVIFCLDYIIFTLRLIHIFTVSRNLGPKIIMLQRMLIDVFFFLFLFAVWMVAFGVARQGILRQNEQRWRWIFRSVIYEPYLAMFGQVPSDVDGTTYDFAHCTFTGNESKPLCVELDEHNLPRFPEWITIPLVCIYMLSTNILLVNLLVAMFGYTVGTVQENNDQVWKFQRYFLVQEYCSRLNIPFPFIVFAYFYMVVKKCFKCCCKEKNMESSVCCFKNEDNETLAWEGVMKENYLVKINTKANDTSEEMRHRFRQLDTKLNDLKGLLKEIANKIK
Structure (SMILES),IC50 [1],IC50 [2]
COc1cc(CNC(=O)CCCC/C=C/C(C)C)ccc1O [capsaicin],39.9 ± 6.4 µM,
CC1CCC(C(C)C)C(O)C1 (centres unmarked) [menthol],,1200 ± 200 µM
